Source: patent publication US9682940B2, “Indazole derivatives useful as CB-1 inverse agonists” (Janssen Pharmaceutica NV, priority 2015, dated 2017)

What was measured:
[1] = target: Human CB2R (Cannabanoid receptor 2) (Homo sapiens (Human), UniProt P34972); test: CB-2 in vitro cAMP (HTRF) assay in HEK-293 cells; format: cell-based; details: HEK-293 cells stably transfected with human CB2R, 250 nM Forskolin, mean where tested more than once, read-out: CB-2 (HEK_cAMP) EC50
Source text: (§1) CB1 and CB2 receptors are Gi-coupled GPCR. Activation of CB1 and CB2 receptors results in a decrease in cAMP production. An inverse agonist of the CB1 or CB2 receptor results in the opposite effect, an increase of cAMP production. The principle of this assay is based on HTRF® technology (Homogeneous Time-Resolved Fluorescence). The method is a competitive immunoassay between native cAMP produced by cells and the cAMP labeled with the fluorophore d2. The tracer binding is quantified by a Mab anti-cAMP labeled with Eu3+TBP-NHS Cryptate (supplied as part of the assay kit). The specific signal (i.e. energy transfer) is inversely proportional to the concentration of cAMP in the standard or sample.
(§2) Human CB1R (Cannabanoid receptor 1) was stably transfected in HEK-293 cells (DiscoveRx, cat: 93-0200C1). Human CB2R (Cannabanoid receptor 2) was stably transfected in HEK-293 cells (DiscoveRx, cat: 93-0201C1). Cell cultures were maintained in media: DMEM (Invitrogen Cat#12430-054) supplemented with 10% HI FBS (Invitrogen Cat#16140-071), 1% L-glutamine (Invitrogen Cat#25030-081), 0.2 mg/ml Hygromycin B (Invitrogen Cat#10687-010), 600 μg/mL G418 (Invitrogen Cat#10131-035), and 1× Penn/Strep (Invitrogen 15140-122). After cell expansion, aliquots were cryo-stored in media containing 5% DMSO (Pierce Cat#20684).
(§3) One day prior to experiments media was warmed to 37° C. and the cryo-stored cells were thawed in a 37° C. water bath. The cells were then added to media (10× volume) and the mixture was centrifugated at 1000 RPM for 5 min. The supernate was removed and the cells were re-suspended in media. A sample of the cell suspension was evaluated on a Cedex XS automated cell counter (Innovatis Systems) to determine viable cells/ml. Additional media was added to the cells to achieve a final cell density of 4E5 cells/mL. The cells were then plated into 384 well PDL white solid bottom plates (Greiner, Cat#781945) at 20 μL per well using a Multidrop (Thermo Scientific). Cells were removed from Row P (location of cAMP standards). Two columns of cells were plated into a clear bottom 384 well PDL coated plate (Greiner, Cat#781944) to view confluence the day of the assay. The cell plates were lidded and stored for 15 minutes in a hood, then transferred to an incubator (37° C., 5% CO2, 95% humidity) overnight.
(§4) DMSO was added to all wells of 384 well V bottom polystyrene plate (Greiner, Cat#781280) except to columns 1 and 13, rows O and P and wells M13-M23 and N13-N23. Test compounds (60 μL, 10 mM) were added to Column 1 and 13 (A1 through N1 and A13 through L13). Test compounds were serially diluted 1/3 by transferring and mixing 20 μl sample with 40 μL DMSO.
(§5) DMSO (40 μL) was added to wells of 384 well V bottom polystyrene plate: O2 through O11, M14 through M23, N14 through N23, and O14 through 023. AM630 (also known as [6-iodo-2-methyl-1-[2-(4-morpholinyl)ethyl]-1H-indol-3-yl](4-methoxyphenyl)-methanone, Cayman Chemical, Cat#10006974) (60 μL, 10 mM) was added to 01; and 1-(2,4-dichlorophenyl)-7-[(4-fluorophenyl)methylene]-4,5,6,7-tetrahydro-N-1-piperidinyl-1H-indazole-3-carboxamide (60 μL, 10 mM) was added to N13. The control was serially diluted 1/3 by transferring and mixing 20 μl sample with 40 μL DMSO. This process resulted 11 doses per control, 10 mM to […].
(§6) Cells plated the day prior to the assay in clear bottom plates were viewed on an inverse microscope to ensure confluency in the range of 60-75%. […]

[2] = target: Human CB1R (Cannabanoid receptor 1) (Homo sapiens (Human), UniProt P21554); test: CB-1 in vitro cAMP (HTRF) assay in HEK-293 cells; format: cell-based; details: HEK-293 cells stably transfected with human CB1R, 250 nM Forskolin, mean where tested more than once, read-out: CB-1 (HEK_cAMP) EC50
Source text: as §1, §2, §3, §4, §5, §6

Chain of Human CB1R (Cannabanoid receptor 1) (P21554 whole entry): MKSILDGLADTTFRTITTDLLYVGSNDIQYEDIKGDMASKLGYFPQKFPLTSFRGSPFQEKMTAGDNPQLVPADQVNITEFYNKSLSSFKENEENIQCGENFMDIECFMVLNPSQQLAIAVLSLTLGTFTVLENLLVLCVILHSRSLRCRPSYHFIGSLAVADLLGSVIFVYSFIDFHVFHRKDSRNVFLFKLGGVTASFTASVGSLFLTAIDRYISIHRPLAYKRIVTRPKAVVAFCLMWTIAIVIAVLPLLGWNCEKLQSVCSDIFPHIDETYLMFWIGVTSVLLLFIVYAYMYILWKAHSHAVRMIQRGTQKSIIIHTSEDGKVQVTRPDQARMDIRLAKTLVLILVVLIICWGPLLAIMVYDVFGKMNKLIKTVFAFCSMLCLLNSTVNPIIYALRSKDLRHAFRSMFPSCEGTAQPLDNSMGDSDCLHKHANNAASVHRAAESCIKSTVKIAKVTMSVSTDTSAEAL
Chain of Human CB2R (Cannabanoid receptor 2) (P34972 whole entry): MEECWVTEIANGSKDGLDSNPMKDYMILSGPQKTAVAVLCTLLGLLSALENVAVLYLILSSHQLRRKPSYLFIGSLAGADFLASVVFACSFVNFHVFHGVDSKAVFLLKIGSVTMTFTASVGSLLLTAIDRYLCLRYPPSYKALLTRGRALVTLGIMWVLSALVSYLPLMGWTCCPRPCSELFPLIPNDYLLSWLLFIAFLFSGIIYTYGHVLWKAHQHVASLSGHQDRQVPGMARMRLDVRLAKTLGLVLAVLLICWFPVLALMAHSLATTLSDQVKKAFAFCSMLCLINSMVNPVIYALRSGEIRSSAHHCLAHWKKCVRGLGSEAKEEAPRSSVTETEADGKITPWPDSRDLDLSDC

Row | EC50 [1] [nM] | EC50 [2] [nM] | SMILES
1 | > 10000 | 1830 | O=C(O)c1cccc(N2CCC(c3n[nH]c4ccc(C(c5ccc(Cl)cc5)c5ccc(Cl)cc5)cc34)CC2)c1 [Compound 212]
2 | > 10000 | 410 | O=C(O)c1ccc(S(=O)(=O)N2CCC(c3n[nH]c4ccc(C(c5ccc(Cl)cc5)c5ccc(Cl)cc5)cc34)CC2)cc1 [Compound 27]
3 | > 10000 | 9500 | O=C(O)CS(=O)(=O)N1CCC(c2c3cc(C(c4ccc(Cl)cc4)c4ccc(Cl)cc4)ccc3nn2C2CC2)CC1 [Compound 131]
4 | > 10000 | 22 | NC(=O)c1csc(CS(=O)(=O)N2CCC(c3nn(C4CC4)c4ccc(C(c5ccc(Cl)cc5)c5ccc(Cl)cc5)cc34)CC2)c1 [Compound 235]
5 | 10200 | 297 | NC(=O)c1ccccc1S(=O)(=O)N1CCC(c2n[nH]c3ccc(C(c4ccc(Cl)cc4)c4ccc(Cl)cc4)cc23)CC1 [Compound 40]
6 | > 10000 | 68 | NS(=O)(=O)c1cccc(C(=O)N2CCC(c3nn(CCO)c4ccc(C(c5ccc(Cl)cc5)c5ccc(Cl)cc5)cc34)CC2)c1 [Compound 71]
7 | > 10000 | 59 | O=S(=O)(N1CCC(c2nn(-c3ccc(F)cc3)c3ccc(C(c4ccc(F)cc4)c4ccc(Cl)cc4)cc23)CC1)C(F)(F)F (centres unmarked) [Compound 50]
8 | > 10000 | 158 | NC(=O)CS(=O)(=O)N1CCC(c2c3cc(C(c4ccc(Cl)cc4)c4ccc(Cl)cc4)ccc3nn2C2CC2)CC1 [Compound 137]
9 | > 10000 | 66 | Cn1nc(C2CCN(S(=O)(=O)c3cccc(C(=O)O)c3)CC2)c2cc(C(c3ccc(Cl)cc3)c3ccc(Cl)cc3)ccc21 [Compound 63]
10 | > 10000 | 68 | O=C(O)c1ccc(CS(=O)(=O)N2CCC(c3nn(C4CC4)c4ccc(C(c5ccc(Cl)cc5)c5ccc(Cl)cc5)cc34)CC2)s1 [Compound 236]
11 | > 10000 | 236 | NC(=O)c1ccccc1C(=O)N1CCC(c2c3cc(C(c4ccc(Cl)cc4)c4ccc(Cl)cc4)ccc3nn2C2CC2)CC1 [Compound 124]
12 | 7100 | 32 | NC(=O)COc1ccc(N2CCC(c3c4cc(C(c5ccc(Cl)cc5)c5ccc(Cl)cc5)ccc4nn3C3CC3)CC2)cc1 [Compound 197, 2-(4-(4-(5-(bis(4-chlorophenyl)methyl)-2-cyclopropyl-2H-indazol-3-yl)piperidin-1-yl)phenoxy)acetamide]
13 | > 10000 | 3240 | O=C(O)Cc1cccc(N2CCC(c3n[nH]c4ccc(C(c5ccc(Cl)cc5)c5ccc(Cl)cc5)cc34)CC2)c1 [Compound 214]
14 | > 10000 | 49 | O=C(c1c[nH]nn1)N1CCC(c2n[nH]c3ccc(C(c4ccc(Cl)cc4)c4ccc(Cl)cc4)cc23)CC1 [Compound 145]
15 | > 10000 | 135 | CS(=O)(=O)N1CCC(Nc2n[nH]c3ccc(C(c4ccc(Cl)cc4)c4ccc(Cl)cc4)cc23)CC1 [Compound 125]
16 | > 10000 | 5480 | O=C(c1nnc[nH]1)N1CCC(c2n[nH]c3ccc(C(c4ccc(Cl)cc4)c4ccc(Cl)cc4)cc23)CC1 [Compound 144]
17 | > 10000 | 150 | O=C(O)c1ccc(N2CCC(c3nn(C4CC4)c4ccc(C(c5ccc(Cl)cc5)c5ccc(Cl)cc5)cc34)CC2)cc1 [Compound 198]
18 | > 10000 | 1540 | O=S(=O)(C(F)F)N1CCC(c2n[nH]c3ccc(C(c4ccc(Cl)cc4)c4ccc(Cl)cc4)cc23)CC1 [Compound 219]
19 | > 10000 | 1230 | NC(=O)CS(=O)(=O)N1CCC(c2n[nH]c3ccc(C(c4ccc(Cl)cc4)c4ccc(Cl)cc4)cc23)CC1 [Compound 25]
20 | > 10000 | 62 | NC(=O)c1cccc(C(=O)N2CCC(c3c4cc(C(c5ccc(Cl)cc5)c5ccc(Cl)cc5)ccc4nn3C3CC3)CC2)c1 [Compound 112]
21 | > 10000 | 7 | O=S(=O)(c1ccccc1O)N1CCC(c2c3cc(C(c4ccc(Cl)cc4)c4ccc(Cl)cc4)ccc3nn2C2CC2)CC1 [Compound 149, 2-(4-(5-(bis(4-chlorophenyl)methyl)-2-cyclopropyl-2H-indazol-3-yl)piperidin-1-ylsulfonyl)phenol]
22 | 12400 | 32 | CCOC(=O)N1CCC(c2n[nH]c3ccc(C(c4ccc(Cl)cc4)c4ccc(Cl)cc4)cc23)CC1 [Compound 268]
23 | 6500 | 63 | NC(=O)c1ccc(S(=O)(=O)N2CCC(c3nn(C4CC4)c4ccc(C(c5ccc(Cl)cc5)c5ccc(Cl)cc5)cc34)CC2)cc1 [Compound 95]
24 | > 10000 | 166 | O=C(CCO)N1CCC(c2c3cc(C(c4ccc(Cl)cc4)c4ccc(Cl)cc4)ccc3nn2C2CC2)CC1 [Compound 132]
25 | 1550 | 9 | O=C(O)c1ccc(S(=O)(=O)N2CCC(c3c4cc(C(c5ccc(Cl)cc5)c5ccc(Cl)cc5)ccc4nn3C3CC3)CC2)cc1 [Compound 117, 4-(4-(5-(bis(4-chlorophenyl)methyl)-2-cyclopropyl-2H-indazol-3-yl)piperidin-1-ylsulfonyl)benzoic acid]
26 | > 10000 | 11 | O=S(=O)(N1CCC(c2c3cc(C(c4ccc(Cl)cc4)c4ccc(Cl)cc4)ccc3nn2C2CC2)CC1)C(F)(F)F [Compound 136, 5-(bis(4-chlorophenyl)methyl)-2-cyclopropyl-3-(1-(trifluoromethylsulfonyl)piperidin-4-yl)-2H-indazole]
27 | 5500 | 8 | Nc1ccc(C(c2ccc(Cl)cc2)c2ccc3[nH]nc(N4CCN(S(=O)(=O)C(F)(F)F)CC4)c3c2)cc1 (centres unmarked) [Compound 226]
28 | > 10000 | 1 | COc1ccccc1S(=O)(=O)N1CCC(c2c3cc(C(c4ccc(Cl)cc4)c4ccc(Cl)cc4)ccc3nn2C2CC2)CC1 [Compound 156, 5-(bis(4-chlorophenyl)methyl)-2-cyclopropyl-3-(1-(2-methoxyphenylsulfonyl)piperidin-4-yl)-2H-indazole]
29 | 7000 | 1550 | CC(c1cccc(C(=O)O)c1)N1CCC(c2n[nH]c3ccc(C(c4ccc(Cl)cc4)c4ccc(Cl)cc4)cc23)C1 (centres unmarked) [Compound 277]

Row | SMILES | EC50 [1] [nM] | EC50 [2] [nM]
30 | NC(=O)c1cccc(CN2CCC(c3n[nH]c4ccc(C(c5ccc(Cl)cc5)c5ccc(Cl)cc5)cc34)CC2)c1 [Compound 220] | > 10000 | 27
31 | O=C(O)c1ccc(CN2CCC(c3nn(C4CC4)c4ccc(C(c5ccc(Cl)cc5)c5ccc(Cl)cc5)cc34)CC2)s1 [Compound 254] | > 10000 | 16
32 | O=C(O)c1ccc(CN2CCC(c3nn(C4CC4)c4ccc(C(c5ccc(Cl)cc5)c5ccc(Cl)cc5)cc34)CC2)o1 [Compound 250] | > 10000 | 43
33 | O=C(O)c1ccc(CN2CCC(c3c4cc(C(c5ccc(Cl)cc5)c5ccc(Cl)cc5)ccc4nn3C3CC3)CC2)o1 [Compound 228, 5-((4-(5-(bis(4-chlorophenyl)methyl)-2-cyclopropyl-2H-indazol-3-yl)piperidin-1-yl)methyl)furan-2-carboxylic acid] | > 10000 | 20
34 | O=C(O)c1cccc(CN2CCC(c3c4cc(C(c5ccc(Cl)cc5)c5ccc(Cl)cc5)ccc4nn3C3CC3)CC2)n1 [Compound 251, 6-((4-(5-(bis(4-chlorophenyl)methyl)-2-cyclopropyl-2H-indazol-3-yl)piperidin-1-yl)methyl)picolinic acid] | > 10000 | 14
